Test results reported in paper PMC3049140, “Mechanism of acetaldehyde-induced deactivation of microbial lipases” (BMC Biochemistry, 2011).

Tests used:
Assay type in all cases: biochemical
[1] = molecular target: T1, BSL-B (Bacillus subtilis lipase B) (Bacillus subtilis, UniProt Q79F14); assay: residual hydrolytic activity, p-nitrophenylpalmitate assay; conditions: read-out: residual activity at 50 mM
T1 construct: gene estB
T1 sequence (Q79F14 29-210): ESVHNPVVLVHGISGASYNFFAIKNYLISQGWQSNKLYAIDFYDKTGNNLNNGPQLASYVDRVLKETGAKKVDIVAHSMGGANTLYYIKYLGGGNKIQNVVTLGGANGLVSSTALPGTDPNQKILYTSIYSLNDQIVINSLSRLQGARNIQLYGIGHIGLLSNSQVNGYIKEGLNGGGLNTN

[2] = molecular target: T1, BSL-B (Bacillus subtilis lipase B); assay: p-nitrophenylpalmitate hydrolysis assay
[3] = molecular target: T2, BSL-A (Bacillus subtilis lipase A) (Bacillus subtilis, UniProt P37957); assay: p-nitrophenylpalmitate hydrolysis assay
T2 construct: gene estA
T2 sequence (P37957 32-212): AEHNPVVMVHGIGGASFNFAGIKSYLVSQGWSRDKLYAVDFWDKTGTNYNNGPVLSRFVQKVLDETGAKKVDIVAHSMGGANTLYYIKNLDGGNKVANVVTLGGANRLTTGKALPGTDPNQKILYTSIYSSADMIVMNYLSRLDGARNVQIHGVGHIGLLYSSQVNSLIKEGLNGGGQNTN

Compound: CC=CC=CC=O [2,4-hexadienal]
- remaining activity at 50000 µM [1]: 19%

Compound: CCCCCCCCCCCCCCCC(=O)Oc1ccc([N+](=O)[O-])cc1 [pNPP, p-nitrophenylpalmitate]
- p-nitrophenylpalmitate hydrolysis assay [2]: residual enzyme activity determined with p-nitrophenylpalmitate as the substrate
- p-nitrophenylpalmitate hydrolysis assay [3]: assayed for residual activity using the p-nitrophenylpalmitate assay
